One may read the Ki as a dissociation constant, usually derived from enzyme kinetics or from competition with a known ligand. A higher Ki goes with weaker binding. Broadly, the melting point is the temperature, or range, at which the solid turns liquid.

The values that follow come from patent US6720339B2, “Certain fused pyrrolecarboxamides; a new class of GABA brain receptor ligands” (Neurogen Corporation, priority 1996, dated 2004).

For the first data set, the target named is GABAa receptor (benzodiazepine receptor). The data set can be described thus: GABAa receptor binding assay (3H-RO15-1788 [3H-Flumazenil] displacement, rat cortical tissue homogenate). The note with it: radioligand 0.5 nM 3H-RO15-1788 (3H-Flumazenil), 30 min at 4° C. The protocol: The pharmaceutical utility of compounds of this invention are indicated by the following assay for GABAa receptor binding activity.
Assays are carried out as described in Thomas and Tallman (J. Bio. Chem. 156: 9838-9842, J. Neurosci. 3: 433-440, 1983). Rat cortical tissue is dissected and homogenized in 25 volumes (w/v) of 0.05 M Tris HCl buffer (pH 7.4 at 4° C.). The tissue homogenate is centrifuged in cold (4° C.) at 20,000×g for 20′. The supernatant is decanted and the pellet is rehomogenized in the same volume of buffer and again centrifuged at 20,000×g. The supernantant is decanted and the pellet is frozen at −20° C. overnight. The pellet is then thawed and rehomogenized in 25 volume (orginal wt/vol) of buffer and the procedure is carried out twice. The pellet is finally resuspended in 50 volumes (w/vol of 0.05 M Tris HCl buffer (pH 7.4 at […]).
Incubations contain […] of tissue homogenate, […] of radioligand 0.5 nM (^3H-RO15-1788 [^3H-Flumazenil] specific activity 80 Ci/mmol), drug or blocker and buffer to a total volume of […]. Incubations are carried for 30 min at 4° C. then are rapidly filtered through GFB filters to separate free and bound ligand. Filters are washed twice with fresh 0.05 M Tris HCl buffer (pH 7.4 at 4° C.) and counted in a liquid scintillation counter. 1.0 mM diazepam is added to some tubes to determine nonspecific binding. Data are collected in triplicate determinations, averaged and % inhabition of total specific binding is calculated. Total Specific Binding=Total−Nonspecific. In some cases, the amounts of unlabeled drugs is varied and total displacement curves of binding are carried out.
With `CC1(C)CC(=O)c2c(C(=O)Nc3ccccc3)c[nH]c2C1` [Compound 1, N-Phenyl-4-oxo-6,6-dimethyl-4,5,6,7-tetrahydro-1H-indole-3-carboxamide], the affinity corresponds to a Ki of 21 nM.
On the same count and under the same terms, for `CC1(C)CC(=O)c2c(C(=O)Nc3ccccc3F)c[nH]c2C1` [Compound 2] the value was 12 nM; for `COc1ccc(NC(=O)c2c[nH]c3c2C(=O)CC(C)(C)C3)cc1` [Compound 3, N-(4-Methoxyphenyl)-4-oxo-6,6-dimethyl-4,5,6,7-tetrahydro-1H-indole-3-carboxamide], 13 nM; for `CC1CC(=O)c2c(C(=O)Nc3ccccc3)c[nH]c2C1` (stereo not shown) [Compound 4, N-Phenyl-4-oxo-6-methyl-4,5,6,7-tetraydro-1H-indole-3-carboxamide], 1 nM.
On the same count and under the same terms, for `CC1CC(=O)c2c(C(=O)Nc3ccccc3F)c[nH]c2C1` (stereo not shown) [Compound 5, N-(2-Fluorophenyl)-4-oxo-6-methyl-4,5,6,7-tetrahydro-1H-indole-3-carboxamide] the value was 0.5 nM; for `COc1ccc(NC(=O)c2c[nH]c3c2C(=O)CC(C)C3)c(F)c1` (stereo not shown) [Compound 6, N-(2-Fluoro-4-methoxyphenyl)-4-oxo-6-methyl-4,5,6,7-tetrahydro-1H-indole-3-carboxamide], 1 nM.
The same measure, in the same setting: for `CC1(C)CC(=O)c2c(C(=O)Nc3ccsc3)c[nH]c2C1` [Compound 7, N-(3-Thienyl)-4-oxo-6,6-dimethyl-4,5,6,7-tetrahydro-1H-indole-3-caboxamide] the value was 10 nM; for `CC1(C)CC(=O)c2c(C(=O)Nc3ccc4cccnc4n3)c[nH]c2C1` [Compound 8, N-(1,8-Napthyridin-2yl)-4-oxo-6,6-dimethyl-4,5,6,7-tetrahydro-1H-indole-3-carboxamide], 80 nM; for `CC1CC(=O)c2c(C(=O)Nc3ccc4cccnc4n3)c[nH]c2C1` (stereo not shown) [Compound 9, N-(1,8-Napthyridin-2-yl)-4-oxo-6-methyl-4,5,6,7-tetahydro-1H-indole-3-carboxamide], 4 nM.
Regarding `CC1CC(=O)c2c(C(=O)Nc3ccc4ccccc4n3)c[nH]c2C1` (stereo not shown) [Compound 10, N-(2-Quinolinyl)-4-oxo-6-methyl-4,5,6,7-tetrahydro-1H-indole-3-carboxamide], the Ki was determined as 12 nM.

Test system in another data set: not given
Assay: not given
Details: not given
With `CC1CC(=O)c2c(C(=O)Nc3ccccc3)c[nH]c2C1` (stereo not shown) [Compound 4, N-Phenyl-4-oxo-6-methyl-4,5,6,7-tetraydro-1H-indole-3-carboxamide], the melting point was in the range of 278 to 279 °C.
Regarding `CC1CC(=O)c2c(C(=O)Nc3ccccc3F)c[nH]c2C1` (stereo not shown) [Compound 5, N-(2-Fluorophenyl)-4-oxo-6-methyl-4,5,6,7-tetrahydro-1H-indole-3-carboxamide], the melting point lay within 264 to 265 °C.
Still for that read-out and setting: for `COc1ccc(NC(=O)c2c[nH]c3c2C(=O)CC(C)C3)c(F)c1` (stereo not shown) [Compound 6, N-(2-Fluoro-4-methoxyphenyl)-4-oxo-6-methyl-4,5,6,7-tetrahydro-1H-indole-3-carboxamide] the value was 217 to 219 °C; for `CC1(C)CC(=O)c2c(C(=O)Nc3ccc4cccnc4n3)c[nH]c2C1` [Compound 8, N-(1,8-Napthyridin-2yl)-4-oxo-6,6-dimethyl-4,5,6,7-tetrahydro-1H-indole-3-carboxamide], 389 to 390 °C; for `CC1CC(=O)c2c(C(=O)Nc3ccc4ccccc4n3)c[nH]c2C1` (stereo not shown) [Compound 10, N-(2-Quinolinyl)-4-oxo-6-methyl-4,5,6,7-tetrahydro-1H-indole-3-carboxamide], 273 to 275 °C.
Same read-out and setting: for `CC1(C)CC(=O)c2c(C(=O)Nc3cccc(F)c3)c[nH]c2C1` [Example 3(b), N-(3-Fluorophenyl)-4-oxo-6,6-dimethyl-4,5,6,7-tetrahydro-1H-indole-3-carboxamide] the value was 259 to 261 °C; for `CCOc1ccc(NC(=O)c2c[nH]c3c2C(=O)CC(C)C3)c(F)c1` (stereo not shown) [Example 3(bb), N-(2-Fluoro-4-ethoxyphenyl)-4-oxo-6-methyl-4,5,6,7-tetrahydro-1H-indole-3-carboxamide], 224 to 225 °C.
On the same count and under the same terms, for `CC1(C)CC(=O)c2c(C(=O)Nc3ccc(F)cc3)c[nH]c2C1` [Example 3(c), N-(4-Fluorophenyl)-4-oxo-6,6-dimethyl-4,5,6,7-tetrahydro-1H-indole-3-carboxamide] the value was 268 to 270 °C; for `CC1CC(=O)c2c(C(=O)Nc3ccc(O)c(O)c3)c[nH]c2C1` (stereo not shown) [Example 3(cc), N-(3,4-Dihydroxyphenyl)-4-oxo-6-methyl-4,5,6,7-tetrahydro-1H-indole-3-carboxamide], 267 to 269 °C; for `Cc1ccc(NC(=O)c2c[nH]c3c2C(=O)CC(C)C3)c(O)c1` (stereo not shown) [Example 3(dd), N-(2-Hydroxy-4-methylphenyl)-4-oxo-6-methyl-4,5,6,7-tetrahydro-1H-indole-3-carboxamide], 258 to 260 °C.
As to `COc1ccc(NC(=O)c2c[nH]c3c2C(=O)CC(C)(C)C3)c(O)c1` [Example 3(g), N-(2-Hydroxy-4-methoxyphenyl)-4-oxo-6,6-dimethyl-4,5,6,7-tetrahydro-1H-indole-3-carboxamide], the melting point fell in the range of 190 to 192 °C.
Still for that read-out and setting: for `COc1ccc(NC(=O)c2c[nH]c3c2C(=O)CC(C)(C)C3)cc1O` [Example 3(h), N-(3-Hydroxy-4-methoxyphenyl)-4-oxo-6,6-dimethyl-4,5,6,7-tetrahydro-1H-indole-3-carboxamide] the value was 282 to 284 °C; for `CC1(C)CC(=O)c2c(C(=O)Nc3cccnc3)c[nH]c2C1` [Example 3(hh), N-(3-Pyridyl)-4-oxo-6,6-dimethyl-4,5,6,7-tetrahydro-1H-indole-3-carboxamide], 237 to 239 °C.
On the same count and under the same terms, the value for `COc1ccc(NC(=O)c2c[nH]c3c2C(=O)CC(C)(C)C3)c(F)c1` [Example 3(i), N-(2-Fluoro-4-methoxyphenyl)-4-oxo-6,6-dimethyl-4,5,6,7-tetrahydro-1H-indole-3-carboxamide] was 213 to 215 °C; that for `COc1ccncc1NC(=O)c1c[nH]c2c1C(=O)CC(C)(C)C2` [Example 3(ii), N-(4-Methoxy-3-pyridyl)-4-oxo-6,6-dimethyl-4,5,6,7-tetrahydro-1H-indole-3-carboxamide] was 217 to 218 °C; that for `CC1(C)CC(=O)c2c(C(=O)Nc3ccc(O)cc3F)c[nH]c2C1` [Example 3(l), N-(2-Fluoro-4-hydroxyphenyl)-4-oxo-6,6-dimethyl-4,5,6,7-tetrahydro-1H-indole-3-carboxamide] was 225 to 227 °C.
The same measure, in the same setting: the value for `CC1CC(=O)c2c(C(=O)Nc3cccnc3)c[nH]c2C1` (stereo not shown) [Example 3(ll), N-(3-Pyridyl)-4-oxo-6-methyl-4,5,6,7-tetrahydro-1H-indole-3-carboxamide] was 225 to 227 °C.
As for `CC1CC(=O)c2c(C(=O)Nc3ccncc3)c[nH]c2C1` (stereo not shown) [Example 3(mm), N-(4-Pyridyl)-4-oxo-6-methyl-4,5,6,7-tetrahydro-1H-indole-3-carboxamide], the melting point was 280 to 290 °C.
Still for that read-out and setting: the value for `CC1CC(=O)c2c(C(=O)Nc3cccc(F)c3)c[nH]c2C1` (stereo not shown) [Example 3(s), N-(3-Fluorophenyl)-4-oxo-6-methyl-4,5,6,7-tetrahydro-1H-indole-3-carboxamide] was 302 to 303 °C; that for `CC1CC(=O)c2c(C(=O)Nc3ccc(F)cc3)c[nH]c2C1` (stereo not shown) [Example 3(t), N-(4-Fluorophenyl)-4-oxo-6-methyl-4,5,6,7-tetrahydro-1H-indole-3-carboxamide] was 262 to 264 °C; that for `COc1cccc(NC(=O)c2c[nH]c3c2C(=O)CC(C)C3)c1` (stereo not shown) [Example 3(u), N-(3-Methoxyphenyl)-4-oxo-6-methyl-4,5,6,7-tetrahydro-1H-indole-3-carboxamide] was 234 to 235 °C.
The same measure, in the same setting: for `CC1CC(=O)c2c(C(=O)Nc3ccc(O)cc3)c[nH]c2C1` (stereo not shown) [Example 3(v), N-(4-Hydroxyphenyl)-4oxo-6-methyl-4,5,6,7-tetrahydro-1H-indole-3-carboxamide] the value was 320 °C.
On the same count and under the same terms, for `COc1ccc(NC(=O)c2c[nH]c3c2C(=O)CC(C)C3)c(O)c1` (stereo not shown) [Example 3(x), N-(2-Hydroxy-4-methoxyphenyl)-4-oxo-6methyl-4,5,6,7-tetrahydro-1H-indole-3-carboxamide] the value was 236 to 238 °C; for `COc1ccc(NC(=O)c2c[nH]c3c2C(=O)CC(C)C3)cc1` (stereo not shown) [Example 3(y), N-(4-Methoxyphenyl)-4-oxo-6-methyl-4,5,6,7-tetrahydro-1H-indole-3-carboxamide], 260 to 261 °C.
